From ChEMBL document CHEMBL1201862, “PubChem BioAssay data set” (2004)
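Where inhibition never reached the appropriate level, the endpoint shown equals the highest concentration tested. Otherwise, values were interpolated linearly from a five-concentration, 48-hour dose response in 96-well plates. Here, GI50 denotes the concentration required for 50% inhibition of growth.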 The source made the active and inactive calls. Rule as the data show it: active = GI50 up to about 1.1 µM and inactive = higher.

Experiments:
Assay in all cases: NCI anticancer screen, dose series, 48 h
SF-268 = tested on: SF-268
HT-29 = tested on: HT-29
OVCAR-5 = tested on: OVCAR-5
CCRF-CEM = tested on: CCRF-CEM
RXF 393 = tested on: RXF 393
HOP-62 = tested on: HOP-62
Malme-3M = tested on: Malme-3M
MOLT-4 = tested on: MOLT-4
NCI-H522 = tested on: NCI-H522
RPMI-8226 = tested on: RPMI-8226
HOP-92 = tested on: HOP-92
LXFL 529 = tested on: LXFL 529
UACC-257 = tested on: UACC-257
A498 = tested on: A498
K562 = tested on: K562
SF-295 = tested on: SF-295
SK-MEL-28 = tested on: SK-MEL-28
SK-MEL-5 = tested on: SK-MEL-5

Structure (SMILES) | GI50 (SF-268) | GI50 (HT-29) | GI50 (OVCAR-5) | GI50 (CCRF-CEM) | GI50 (RXF 393) | GI50 (HOP-62) | GI50 (Malme-3M) | GI50 (MOLT-4) | GI50 (NCI-H522) | GI50 (RPMI-8226) | GI50 (HOP-92) | GI50 (LXFL 529) | GI50 (UACC-257) | GI50 (A498) | GI50 (K562) | GI50 (SF-295) | GI50 (SK-MEL-28) | GI50 (SK-MEL-5)
COC(=O)C(C(=O)C(=O)Nc1c(Cl)cc([N+](=O)[O-])cc1Cl)c1nc2cc(C)c(C)cc2nc1O (configuration not stated) | > 100 µM (inactive) | > 100 µM (inactive) | > 100 µM (inactive) | > 100 µM (inactive) | > 100 µM (inactive) | > 100 µM (inactive) | > 100 µM (inactive) | > 100 µM (inactive) | > 100 µM (inactive) | > 100 µM (inactive) | 47.8 µM (inactive) | > 100 µM (inactive) | > 100 µM (inactive) | 44.9 µM (inactive) | > 100 µM (inactive) | > 100 µM (inactive) | – | –
C=C1CC(c2ccc(O)c(OC)c2)Oc2c(OC)cccc21 (configuration not stated) | 33 µM (inactive) | 55 µM (inactive) | 65.5 µM (inactive) | 23.8 µM (inactive) | – | 85.3 µM (inactive) | – | 25.1 µM (inactive) | 10.7 µM (inactive) | – | 14.4 µM (inactive) | 26.2 µM (inactive) | 39.3 µM (inactive) | – | 19.7 µM (inactive) | 80.5 µM (inactive) | 43.5 µM (inactive) | 35.7 µM (inactive)
CC1(C)CCc2cc3c(cc2O1)OCC1c2cc4c(cc2OC31)OCO4 (configuration not stated) | > 100 µM (inactive) | > 100 µM (inactive) | > 100 µM (inactive) | > 100 µM (inactive) | > 100 µM (inactive) | > 100 µM (inactive) | 32.7 µM (inactive) | > 100 µM (inactive) | > 100 µM (inactive) | > 100 µM (inactive) | > 100 µM (inactive) | > 100 µM (inactive) | 28 µM (inactive) | > 100 µM (inactive) | 71.1 µM (inactive) | > 100 µM (inactive) | – | 39.9 µM (inactive)
CN(C)c1c([O-])c(=[N+](C)C)c1=O | > 100 µM (inactive) | > 100 µM (inactive) | > 100 µM (inactive) | > 100 µM (inactive) | > 100 µM (inactive) | > 100 µM (inactive) | – | > 100 µM (inactive) | > 100 µM (inactive) | – | > 100 µM (inactive) | > 100 µM (inactive) | > 100 µM (inactive) | > 100 µM (inactive) | > 100 µM (inactive) | > 100 µM (inactive) | > 100 µM (inactive) | –
CCOC(=O)Cc1csc(Nc2ccc(OCC)cc2)n1 | > 100 µM (inactive) | > 100 µM (inactive) | – | – | > 100 µM (inactive) | > 100 µM (inactive) | > 100 µM (inactive) | 61.8 µM (inactive) | > 100 µM (inactive) | > 100 µM (inactive) | 47.4 µM (inactive) | 87.3 µM (inactive) | > 100 µM (inactive) | > 100 µM (inactive) | 92.7 µM (inactive) | > 100 µM (inactive) | > 100 µM (inactive) | –
N#CCc1nnc(N)o1 | > 100 µM (inactive) | – | – | > 100 µM (inactive) | – | – | > 100 µM (inactive) | > 100 µM (inactive) | > 100 µM (inactive) | > 100 µM (inactive) | > 100 µM (inactive) | > 100 µM (inactive) | > 100 µM (inactive) | – | > 100 µM (inactive) | > 100 µM (inactive) | > 100 µM (inactive) | –
Cc1cccc(C)c1NC(=O)CCCC(=O)C1/C(=N/NC(=O)CC#N)CCC/C1=N\NC(=O)CC#N (configuration not stated) | > 100 µM (inactive) | > 100 µM (inactive) | > 100 µM (inactive) | > 100 µM (inactive) | – | > 100 µM (inactive) | > 100 µM (inactive) | > 100 µM (inactive) | > 100 µM (inactive) | > 100 µM (inactive) | 48.8 µM (inactive) | > 100 µM (inactive) | > 100 µM (inactive) | > 100 µM (inactive) | > 100 µM (inactive) | > 100 µM (inactive) | > 100 µM (inactive) | > 100 µM (inactive)
CCCCC/C=C1\CCC(CN(C)C)C1=O (configuration not stated) | 19.1 µM (inactive) | 28.2 µM (inactive) | 18.6 µM (inactive) | 1.56 µM (inactive) | – | 17.7 µM (inactive) | 14.6 µM (inactive) | 1.95 µM (inactive) | 4.06 µM (inactive) | 0.386 µM (active) | 11.5 µM (inactive) | 1.82 µM (inactive) | 16.3 µM (inactive) | – | 1.94 µM (inactive) | 20 µM (inactive) | 9.89 µM (inactive) | 18.2 µM (inactive)
Cc1cc2c3ccccc3n(C)c2c2c1C(=O)c1ccccc1C2=O | 25 µM (inactive) | 24.9 µM (inactive) | – | 5.18 µM (inactive) | – | 20.4 µM (inactive) | 18.2 µM (inactive) | 5.83 µM (inactive) | 16.7 µM (inactive) | 6.3 µM (inactive) | 13.5 µM (inactive) | 16.9 µM (inactive) | 20 µM (inactive) | 25.6 µM (inactive) | 20.4 µM (inactive) | 13.6 µM (inactive) | 18.6 µM (inactive) | –
